Results on 10 compounds are retold here after patent publication US20220370440A1 (Lead Discovery Center GmbH, priority 2018, published 2022).

Test [1] concerns the target T1, HER2 INS YVMA (Homo sapiens, UniProt P04626, INS775YVMA).
T1 construct: purchased DPF
The test is described as follows: Lance Kinase Activity Assay, HER2 INS YVMA (Her2 Exon 20 INSYVMA Lance). The format is biochemical. The settings on record: biochemical Lance assay. Here is the method:
1. Measurement of HER2 INS YVMA Kinase Activity
This protocol describes how the Lance Kinase Activity Assay was performed to determine IC50 values of compounds of general formula (I) against HER2 INS YVMA. The principle behind this enzymatic assay is based upon the phosphorylation of the Ulight-peptide substrate. It is detected by using a specific EU-labeled anti-phospho peptide antibody. The binding of the Eu labeled anti-phospho peptide antibody to the phosphorylated ULight labeled peptide gives rise to a FRET-signal.
Binding of an inhibitor to the kinase prevents phosphorylation of the Ulight-substrate, resulting in a loss of FRET. In table 2 is summarized the relevant information for the LANCE assay.
The compounds of general formula (I) summarized in Table 3 were serial diluted from a 10 mM DMSO stock solution 1:3 over 8 steps in a total volume of 20 μl.
For every sample, 8 μl of kinase-substrate mix was transferred into a suitable assay plate (e.g. Corning #3673). Compound was added via pintool transfer (10 nl/well) using a Biomek FX robot (BeckmanCoulter). Reaction was started by addition of 2 μl ATP working solution and mixed using variomag teleshaker (Thermo Fischer Scientific). After 1 h incubation at room temperature the reaction was stopped with 10 μl detection mix containing the Eu-labeled phosphospecific antibody and 10 mM EDTA. After a second incubation period of 1 h at room temperature the FRET signal was measured at 340 nm excitation, 665 nm and 615 nm emission (for the ULight-substrate and Eu-AB, respectively) with an Envision spectrophotometer (Perkin Elmer, Waltham, Mass., USA) with 50 μs delay and 300 μs integration time. IC50 values were determined from the sigmoidal dose response curves with the software Quattro Workflow (Quattro GmbH, Munich, Germany).

Test [2] has as its target Her2 Exon 20 INSYVMA Ba/F3 (Homo sapiens, UniProt P04626, DUP772-775, cells depend on it). The test is described as follows: Her2 Exon 20 INSYVMA Ba/F3 CellTiter-Glo. Conditions: CellTiter-Glo, 72 h, read-out: Her2 Exon 20 INSYVMA Ba/F3 CTG IC50. The format is cell-based. Here is the method: (§1) 2. Measurement of Cellular Activity
(§2) The CellTiter-Glo Luminescent Cell Viability Assay (Promega) is a homogeneous method of determining the number of viable cells in culture. It is based on quantification of ATP, indicating the presence of metabolically active cells. Cells are seeded on day 1 at cell numbers that assure assay linearity and optimal signal intensity. After incubation for 24 h in humidified chambers at 37° C. and 5% CO2, compounds in DMSO are added at different concentrations. Cells are further incubated for 72 h at 37° C. and 5% CO2. Cells treated with the compound vehicle DMSO are used as positive controls and cells treated with 10 μM Staurosporine serve as negative controls. At day 5 the CellTiter Glo Reagent is prepared according to the instructions of the kit (Promega Inc.): Reagent is mixed 1:1 with cell culture medium. Thereon, mixture and assay plates are equilibrated at room temperature for 20 min. Equal volumes of the reagent-medium-mixture is added to the volume of culture medium present in each well. The plates are mixed at ˜200 rpm for 2 minutes on an orbital shaker. The microplates are then incubated at room temperature for 10 minutes for stabilization of the luminescent signal. Following incubation the luminescence is recorded on a Victor microplate reader (Perkin Elmer) using a 200 ms integration time. The data is then analyzed with Excel using the XLFIT Plugin (dose response Fit 205) for IC50-determination. As quality control the Z′-factor is calculated from 16 positive and negative control values. Only assay results showing a Z′-factor ≥0.5 are used for further analysis.
(§3) Inhibition is indicated as IC50 [nM] (“−”=not measured). Compounds having an activity designated as “A” provided an IC50≤100 nM; compounds having an activity designated as “B” provided an 100 nM<IC50≤500 nM; compounds having an activity designated as “C” provided an 500 nM<IC50≤1000 nM; compounds having an activity designated as “D” provided an 1000 nM<IC50≤10000 nM; and compounds having an activity designated as “E” provided an IC50>10000 nM.
A general note: ATP-based viability assays read luminescence as a measure of living cells.

The target of test [3] is EGFR Exon 20 INSNPH Ba/F3 (Homo sapiens, UniProt P00533, DUP771-773, cells depend on it). Kind of test: EGFR Exon 20 INSNPH Ba/F3 CellTiter-Glo. Conditions: CellTiter-Glo, 72 h, read-out: EGFR Exon 20 INSNPH Ba/F3 CTG IC50. It is filed as cell-based. The protocol: as §1, §2, §3
Test [4] deals with EGFR T790ML858R (Homo sapiens, UniProt P00533, L858R/T790M). The test is described as follows: EGFR T790ML858R Lance assay. It is filed as biochemical. Here is the method:
(§4) Inhibition is indicated as […] [nM] (“−”=not measured). Compounds having an activity designated as “A” provided an IC50≤100 nM; compounds having an activity designated as “B” provided an 100 nM<IC50≤500 nM; compounds having an activity designated as “C” provided an 500 nM<IC50≤1000 nM; compounds having an activity designated as “D” provided an 1000 nM<IC50≤100000 nM; and compounds having an activity designated as “E” provided an IC50>10000 nM.

Test [5] deals with EGFR wt (Homo sapiens, UniProt P00533). The test is described as follows: EGFR wt Lance assay. It is filed as biochemical. Here is the method:
as §4

The test system of test [6] is H1975. Kind of test: H1975 CellTiter-Glo. Conditions: Homo sapiens, NCI-H1975; 72 h compound incubation; read-out: H1975 CTG IC50. It is filed as cell-based. The protocol:
as §1, §2, §4

In test [7] the test system is A431. The test is described as follows: A431 CellTiter-Glo. It is filed as cell-based. The settings on record: Homo sapiens, A-431; 72 h compound incubation; read-out: A431 CTG IC50. The protocol: as §1, §2, §4

Sequence of Her2 Exon 20 INSYVMA Ba/F3 (P04626 with tags, fused parts or gaps DUP772-775): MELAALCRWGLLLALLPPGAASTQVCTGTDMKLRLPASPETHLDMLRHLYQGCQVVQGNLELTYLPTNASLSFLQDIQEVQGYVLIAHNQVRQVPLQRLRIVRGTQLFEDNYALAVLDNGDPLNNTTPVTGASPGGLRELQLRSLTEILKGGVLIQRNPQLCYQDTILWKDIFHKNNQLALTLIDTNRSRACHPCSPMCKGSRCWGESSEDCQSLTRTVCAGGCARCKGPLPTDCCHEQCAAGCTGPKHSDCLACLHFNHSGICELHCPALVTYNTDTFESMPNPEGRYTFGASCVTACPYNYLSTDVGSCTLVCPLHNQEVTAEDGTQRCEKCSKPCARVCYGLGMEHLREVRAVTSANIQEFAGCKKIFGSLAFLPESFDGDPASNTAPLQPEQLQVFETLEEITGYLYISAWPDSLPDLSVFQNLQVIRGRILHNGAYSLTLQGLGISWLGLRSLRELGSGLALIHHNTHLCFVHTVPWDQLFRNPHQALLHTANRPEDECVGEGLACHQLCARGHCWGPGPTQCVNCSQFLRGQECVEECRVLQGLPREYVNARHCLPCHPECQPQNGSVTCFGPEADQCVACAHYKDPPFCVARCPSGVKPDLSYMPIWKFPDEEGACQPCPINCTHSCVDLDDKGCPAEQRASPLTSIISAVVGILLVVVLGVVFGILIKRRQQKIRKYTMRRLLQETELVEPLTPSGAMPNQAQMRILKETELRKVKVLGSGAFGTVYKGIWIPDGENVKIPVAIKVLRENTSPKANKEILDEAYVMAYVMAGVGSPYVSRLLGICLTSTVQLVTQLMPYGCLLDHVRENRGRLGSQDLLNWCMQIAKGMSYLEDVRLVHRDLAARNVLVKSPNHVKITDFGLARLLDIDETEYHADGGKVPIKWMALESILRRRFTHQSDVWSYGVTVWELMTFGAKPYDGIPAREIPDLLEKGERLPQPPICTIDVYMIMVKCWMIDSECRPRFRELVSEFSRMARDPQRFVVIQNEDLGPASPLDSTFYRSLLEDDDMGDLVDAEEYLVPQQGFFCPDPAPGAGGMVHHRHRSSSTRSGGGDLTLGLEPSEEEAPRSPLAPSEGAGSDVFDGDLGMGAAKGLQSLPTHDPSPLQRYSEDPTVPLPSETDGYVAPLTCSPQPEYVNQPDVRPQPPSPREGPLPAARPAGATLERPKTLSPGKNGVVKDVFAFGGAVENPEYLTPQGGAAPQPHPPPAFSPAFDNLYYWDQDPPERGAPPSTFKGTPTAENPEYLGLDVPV
Sequence of EGFR wt (P00533 25-1210): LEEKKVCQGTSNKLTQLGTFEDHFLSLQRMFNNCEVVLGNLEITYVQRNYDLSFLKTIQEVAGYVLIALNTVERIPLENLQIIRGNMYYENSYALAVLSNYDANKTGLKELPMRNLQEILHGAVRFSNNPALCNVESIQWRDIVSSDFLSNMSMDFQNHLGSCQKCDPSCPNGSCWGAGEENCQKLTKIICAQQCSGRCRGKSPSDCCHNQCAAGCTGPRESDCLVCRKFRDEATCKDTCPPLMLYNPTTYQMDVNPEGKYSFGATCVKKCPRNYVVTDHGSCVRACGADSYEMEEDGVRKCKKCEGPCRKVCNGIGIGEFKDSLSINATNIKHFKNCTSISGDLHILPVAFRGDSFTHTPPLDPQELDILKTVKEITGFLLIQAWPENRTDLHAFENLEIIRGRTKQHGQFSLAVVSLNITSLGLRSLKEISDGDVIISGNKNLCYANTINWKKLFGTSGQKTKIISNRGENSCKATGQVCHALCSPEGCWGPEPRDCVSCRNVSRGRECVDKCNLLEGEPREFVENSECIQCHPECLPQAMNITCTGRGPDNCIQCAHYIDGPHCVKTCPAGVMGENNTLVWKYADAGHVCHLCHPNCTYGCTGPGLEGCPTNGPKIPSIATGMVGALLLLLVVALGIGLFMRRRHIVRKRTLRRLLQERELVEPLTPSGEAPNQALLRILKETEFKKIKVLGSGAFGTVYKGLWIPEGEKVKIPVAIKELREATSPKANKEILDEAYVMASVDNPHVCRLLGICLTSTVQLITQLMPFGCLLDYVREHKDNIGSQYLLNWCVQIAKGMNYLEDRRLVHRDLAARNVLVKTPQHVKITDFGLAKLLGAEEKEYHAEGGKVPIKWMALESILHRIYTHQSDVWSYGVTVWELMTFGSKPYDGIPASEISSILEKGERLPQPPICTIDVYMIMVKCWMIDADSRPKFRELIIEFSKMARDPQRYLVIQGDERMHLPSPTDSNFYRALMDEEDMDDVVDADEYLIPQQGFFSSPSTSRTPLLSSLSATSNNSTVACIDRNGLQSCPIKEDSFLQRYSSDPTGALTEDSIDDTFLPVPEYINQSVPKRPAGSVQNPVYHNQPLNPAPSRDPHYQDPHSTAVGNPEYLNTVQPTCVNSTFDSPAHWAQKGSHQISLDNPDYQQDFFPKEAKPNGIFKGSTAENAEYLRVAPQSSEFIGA
Sequence of EGFR Exon 20 INSNPH Ba/F3 (P00533 with tags, fused parts or gaps DUP771-773): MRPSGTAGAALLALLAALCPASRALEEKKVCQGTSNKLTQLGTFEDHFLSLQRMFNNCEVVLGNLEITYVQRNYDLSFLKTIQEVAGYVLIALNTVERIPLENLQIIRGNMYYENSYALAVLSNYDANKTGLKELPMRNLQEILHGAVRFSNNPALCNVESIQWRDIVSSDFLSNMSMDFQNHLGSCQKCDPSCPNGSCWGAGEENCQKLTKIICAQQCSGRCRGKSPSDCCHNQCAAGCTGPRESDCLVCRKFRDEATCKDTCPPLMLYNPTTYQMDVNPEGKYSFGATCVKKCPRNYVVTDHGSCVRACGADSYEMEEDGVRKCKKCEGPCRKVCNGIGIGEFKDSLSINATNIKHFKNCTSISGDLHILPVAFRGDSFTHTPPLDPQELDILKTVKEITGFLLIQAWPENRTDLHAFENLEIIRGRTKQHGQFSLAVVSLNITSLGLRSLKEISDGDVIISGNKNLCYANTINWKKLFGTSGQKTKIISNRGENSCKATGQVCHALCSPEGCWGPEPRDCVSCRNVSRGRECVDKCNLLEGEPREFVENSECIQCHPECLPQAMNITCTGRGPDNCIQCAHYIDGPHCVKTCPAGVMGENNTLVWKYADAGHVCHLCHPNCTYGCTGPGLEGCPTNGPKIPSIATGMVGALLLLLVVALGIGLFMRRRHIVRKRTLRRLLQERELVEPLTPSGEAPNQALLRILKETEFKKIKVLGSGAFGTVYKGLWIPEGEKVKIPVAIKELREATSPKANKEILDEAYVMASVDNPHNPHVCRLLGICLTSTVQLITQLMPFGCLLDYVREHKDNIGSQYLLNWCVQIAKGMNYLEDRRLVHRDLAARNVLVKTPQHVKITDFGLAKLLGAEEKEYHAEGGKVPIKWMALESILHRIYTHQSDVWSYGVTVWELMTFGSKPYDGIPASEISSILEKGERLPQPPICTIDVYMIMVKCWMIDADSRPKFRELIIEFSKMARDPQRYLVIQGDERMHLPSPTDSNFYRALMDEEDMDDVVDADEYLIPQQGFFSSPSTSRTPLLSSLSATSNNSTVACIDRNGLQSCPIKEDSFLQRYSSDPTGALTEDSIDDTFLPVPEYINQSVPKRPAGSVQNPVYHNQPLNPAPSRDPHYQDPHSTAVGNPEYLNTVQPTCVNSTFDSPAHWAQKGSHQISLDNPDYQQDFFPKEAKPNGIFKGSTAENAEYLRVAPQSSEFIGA
T1 sequence (P04626 with tags, fused parts or gaps INS775YVMA): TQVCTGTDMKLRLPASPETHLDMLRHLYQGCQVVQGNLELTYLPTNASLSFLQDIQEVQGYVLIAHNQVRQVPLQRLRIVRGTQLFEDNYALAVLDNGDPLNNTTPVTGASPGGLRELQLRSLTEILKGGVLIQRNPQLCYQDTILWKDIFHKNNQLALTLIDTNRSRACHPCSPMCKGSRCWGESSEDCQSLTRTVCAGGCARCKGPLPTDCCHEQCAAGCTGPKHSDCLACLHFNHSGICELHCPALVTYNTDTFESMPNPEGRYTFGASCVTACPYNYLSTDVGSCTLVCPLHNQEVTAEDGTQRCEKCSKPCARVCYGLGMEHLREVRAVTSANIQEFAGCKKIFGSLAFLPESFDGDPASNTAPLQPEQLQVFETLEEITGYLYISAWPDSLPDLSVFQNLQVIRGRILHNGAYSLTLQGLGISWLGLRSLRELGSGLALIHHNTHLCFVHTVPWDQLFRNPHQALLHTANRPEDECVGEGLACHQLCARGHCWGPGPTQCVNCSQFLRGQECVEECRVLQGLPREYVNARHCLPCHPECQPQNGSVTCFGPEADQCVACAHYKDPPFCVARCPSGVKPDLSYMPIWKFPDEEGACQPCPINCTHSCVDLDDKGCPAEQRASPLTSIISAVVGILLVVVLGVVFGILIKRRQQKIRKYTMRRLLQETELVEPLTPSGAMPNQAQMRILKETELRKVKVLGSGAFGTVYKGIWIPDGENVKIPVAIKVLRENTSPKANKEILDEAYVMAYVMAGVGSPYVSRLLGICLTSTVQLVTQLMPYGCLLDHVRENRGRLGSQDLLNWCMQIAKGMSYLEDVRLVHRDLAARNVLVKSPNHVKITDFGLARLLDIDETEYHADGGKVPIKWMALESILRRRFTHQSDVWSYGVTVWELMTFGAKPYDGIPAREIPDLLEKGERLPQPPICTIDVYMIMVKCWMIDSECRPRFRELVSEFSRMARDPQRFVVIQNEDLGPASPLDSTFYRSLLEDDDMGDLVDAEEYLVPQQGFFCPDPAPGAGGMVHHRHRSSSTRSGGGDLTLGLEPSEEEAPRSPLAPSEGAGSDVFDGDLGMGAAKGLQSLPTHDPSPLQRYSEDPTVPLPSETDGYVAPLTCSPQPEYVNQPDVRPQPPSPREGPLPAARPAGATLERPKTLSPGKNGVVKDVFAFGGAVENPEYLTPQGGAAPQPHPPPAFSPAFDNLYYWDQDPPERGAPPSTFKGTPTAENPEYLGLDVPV

Consider `C=CC(=O)N1CCc2ccc(-c3c(-c4ccc(CN(C)C)cc4)[nH]c4nccc(OCC)c34)cc21` [Example 106, 1-(6-(2-(4-((dimethylamino)methyl)phenyl)-4-ethoxy-1H-pyrrolo[2,3-b]pyridin-3-yl)indolin-1-yl)prop-2-en-1-one], for which the IC50 (commonly the concentration that gives 50% inhibition) is at most 100 nM in test [1]; at most 100 nM in test [4]; at most 100 nM in test [5]; at most 100 nM in test [6]; 500 to 1000 nM in test [7]. The GI50 in test [2] and in test [3] was 100 to 500 nM each time.
In the case of `C=CC(=O)N1CCc2ccc(-c3c(-c4ccc(OCCN5CCCC5)cc4)[nH]c4nccc(OCC)c34)cc21` [Example 107, 1-(6-(4-ethoxy-2-(4-(2-(pyrrolidin-1-yl)ethoxy)phenyl)-1H-pyrrolo[2,3-b]pyridin-3-yl)indolin-1-yl)prop-2-en-1-one], the IC50 in test [1] is at most 100 nM; in test [4], at most 100 nM; in test [5] it was at most 100 nM; in test [6], at most 100 nM; in test [7] it was 500 to 1000 nM. Moreover, the GI50 in test [2] and in test [3] was 100 to 500 nM in each case.
In the case of `C=CC(=O)Nc1cc(-c2c(-c3ccc(N4CCN(C)CC4)cc3)[nH]c3ncc(C(=O)NCc4ccccc4)cc23)ccc1C` [Example 118, 3-(3-acrylamido-4-methylphenyl)-N-benzyl-2-(4-(4-methylpiperazin-1-yl)phenyl)-1H-pyrrolo[2,3-b]pyridine-5-carboxamide 2,2,2-trifluoroacetate], the IC50 in test [1] is at most 100 nM; in test [4] it was at most 100 nM; in test [5], at most 100 nM; in test [6], 500 to 1000 nM; in test [7] it was 500 to 1000 nM. Also, the GI50 in test [2] and in test [3] was 100 to 500 nM throughout.
In the case of `C=CC(=O)Nc1cc(-c2c(-c3ccc(N4CCN(C)CC4)cc3)[nH]c3ncc(C(=O)NCc4cccc(NC(C)=O)c4)cc23)ccc1C` [Example 121, N-(3-acetamidobenzyl)-3-(3-acrylamido-4-methylphenyl)-2-(4-(4-methylpiperazin-1-yl)phenyl)-1H-pyrrolo[2,3-b]pyridine-5-carboxamide], the IC50 in test [1] was at most 100 nM; in test [4] it was 100 to 500 nM; in test [5], at most 100 nM; in test [6], above 10000 nM; in test [7], above 10000 nM. Moreover, the GI50 in test [2] and in test [3] was above 10000 nM throughout.
As to `C=CC(=O)Nc1cc(-c2c(-c3ccc(N4CCN(C)CC4)cc3)[nH]c3ncc(C(=O)NCc4ccc(CN5CCN(C)CC5)cc4)cc23)ccc1C` [Example 122, 3-(3-acrylamido-4-methylphenyl)-N-(4-((4-methylpiperazin-1-yl)methyl)benzyl)-2-(4-(4-methylpiperazin-1-yl)phenyl)-1H-pyrrolo[2,3-b]pyridine-5-carboxamide], the IC50 in test [1] is at most 100 nM; in test [4], at most 100 nM; in test [5], at most 100 nM; in test [6], 1000 to 100000 nM; in test [7], 1000 to 100000 nM. For the same compound, the GI50 in test [2] and in test [3] was 1000 to 10000 nM in each case.
As for `C=CC(=O)Nc1cc(-c2c(-c3ccc(N4CCN(C)CC4)cc3)[nH]c3ncc(C(=O)NCCc4ccncc4)cc23)ccc1C` [Example 123, 3-(3-acrylamido-4-methylphenyl)-2-(4-(4-methylpiperazin-1-yl)phenyl)-N-(2-(pyridin-4-yl)ethyl)-1H-pyrrolo[2,3-b]pyridine-5-carboxamide], the IC50 in test [1] was 500 to 1000 nM; in test [4], at most 100 nM; in test [5], at most 100 nM; in test [6] it was above 10000 nM; in test [7], 1000 to 100000 nM. The GI50 in test [2] and in test [3] was 1000 to 10000 nM in each case.
As for `C=CC(=O)Nc1cc(-c2c(-c3ccc(N4CCN(C)CC4)cc3)[nH]c3ncc(C(=O)NCCc4ccc(F)cc4)cc23)ccc1C` [Example 124, 3-(3-acrylamido-4-methylphenyl)-N-(4-fluorophenethyl)-2-(4-(4-methylpiperazin-1-yl)phenyl)-1H-pyrrolo[2,3-b]pyridine-5-carboxamide], the IC50 in test [1] is 100 to 500 nM; in test [4] it was at most 100 nM; in test [5], at most 100 nM; in test [6] it was 500 to 1000 nM; in test [7] it was 500 to 1000 nM. Moreover, the figures for the GI50 in test [2] and in test [3] were 100 to 500 nM and 500 to 1000 nM, respectively.
As for `C=CC(=O)Nc1cc(-c2c(-c3ccc(N4CCN(C)CC4)cc3)[nH]c3ncc(C(=O)NCc4nc5ccccc5[nH]4)cc23)ccc1C` [Example 125, N-((1H-benzo[d]imidazol-2-yl)methyl)-3-(3-acrylamido-4-methylphenyl)-2-(4-(4-methylpiperazin-1-yl)phenyl)-1H-pyrrolo[2,3-b]pyridine-5-carboxamide], the IC50 in test [1] was 1000 to 10000 nM; in test [4], 100 to 500 nM; in test [5], at most 100 nM; in test [6], 100 to 500 nM; in test [7], 1000 to 100000 nM. Besides, the GI50 in test [2] and in test [3] was 1000 to 10000 nM each time.
Consider `C=CC(=O)Nc1cc(-c2c(-c3ccc(N4CCN(C)CC4)cc3)[nH]c3ncc(C(=O)NCc4cccc(S(N)(=O)=O)c4)cc23)ccc1C` [Example 126, 3-(3-acrylamido-4-methylphenyl)-2-(4-(4-methylpiperazin-1-yl)phenyl)-N-(3-sulfamoylbenzyl)-1H-pyrrolo[2,3-b]pyridine-5-carboxamide], for which the IC50 is 100 to 500 nM in test [1]; at most 100 nM in test [4]; at most 100 nM in test [5]; above 10000 nM in test [6]; above 10000 nM in test [7]. Further, the GI50 in test [2] and in test [3] was above 10000 nM in each case.
With `C=CC(=O)Nc1cc(-c2c(-c3ccc(N4CCN(C)CC4)cc3)[nH]c3ncc(C(=O)NCc4ccncc4)cc23)ccc1C` [Example 127, 3-(3-acrylamido-4-methylphenyl)-2-(4-(4-methylpiperazin-1-yl)phenyl)-N-(pyridin-4-ylmethyl)-1H-pyrrolo[2,3-b]pyridine-5-carboxamide], the IC50 in test [1] was at most 100 nM; in test [4] it was at most 100 nM; in test [5] it was at most 100 nM; in test [6], 1000 to 100000 nM; in test [7], 1000 to 100000 nM. Also, the GI50 in test [2] and in test [3] was 1000 to 10000 nM in each case.
